Results taken from patent US20150079156A1, “LIPOSOMAL DELIVERY SYSTEM” (THE QUEEN'S UNIVERSITY OF BELFAST, priority 2012, published 2015).

What was measured:
[1] = Nasal tissue penetration, Franz type permeation cell, CLSM; type: in vitro ADME, bovine; conditions: CF loaded, 1 hour incubation, 37° C.
Procedure: To investigate the ability of the TPGS:DDA:SPC liposomes of Example 1 to cross nasal mucosa and penetrate into bovine nasal tissue fresh bovine nasal tissues were collected from freshly slaughtered animals. The mucosal tissue was removed and preserved in Krebs Bicarbonate Ringer (KBR) buffer pH 7.4. Liposome penetration studies were performed immediately to maintain the viability of the cells tissue being used. A Franz type permeation cell was used in this study; the recipient compartment filled with KBR buffer and stirred constantly. The temperature of the Franz cell was maintained at 37° C. with jacketed water flow. A 1.5 cm^2 tissue section was inserted between the recipient and donor compartments and 0.5 ml of reconstituted liposomal dispersion or free carboxyfluorescein (CF) solutions containing an equivalent amount of CF were loaded into the donor compartment, and left for 1 hour incubation. The tissues were then washed with KBR buffer and frozen in optimal cutting temperature compound at −80° C. for cryosection. Samples of 10 μm thickness were obtained using a cryostat (MICROM HM 550). Propidium iodide (PI) solution was used to stain the cell nuclei and cryosectioned tissues were mounted in glycerol containing 1,4-phenylenediamine (0.1 g/l). Penetration was observed using confocal laser scanning microscopy (CLSM). […]

[2] = test system: human lung epithelial cell line L-132; test: Cell uptake of CF-loaded liposomal formulations (fluorometry, flow cytometry, CLSM); type: cell-based; conditions: L-132 cells, 0.5-2 h at 37° C., 1:100 dilution
Procedure: Cells from the human lung epithelial cell line L-132 were cultured in MEM medium containing Earle's salts and L-glutamine and supplemented with 10% fetal calf serum (FCS), under standard conditions at 37° C. with 5% CO2 and 95% air. To validate the fluorimetric analysis, a standard curve was created during each assay. To perform the fluorometric assay cells were seeded at 25×10^4 cells/well onto 24-well plates (total volume was 1 ml/well). Twenty four hours later, the culture medium was removed. The formulations were added to the cells in 1:100 dilution in MEM medium (10 μl of liposomes suspension+990 μl medium) and incubated for 0.5-2 h at 37° C. Following incubation cells were washed two times with cold PBS to end the uptake experiment. Then the washed cells were lysed with 0.2% Triton X-100 in 0.2 N NaOH (1.0 ml/well) for 0.5-1 hour at room temperature. Aliquots from each well were transferred into 96-well plates. The cell fluorescence intensity was determined using a microplate fluorometer at an excitation wavelength of 485 nm and emission wavelength of 520 nm and Gain level set to 800 in the software (FIG. 4). […] The cells were kept on ice and analysized by flow cytometry using a FACscan flow cytometer for cell-associated CF fluorescence. The mean fluorescence intensity of cells was determined for each sample (FIG. 5). […]

[3] = In vitro release of BSA from liposomes, dialysis method; type: physicochemical; conditions: free BSA, 4 h, 37° C., PBS pH 7.4
Procedure: in vitro release experiments of BSA from liposomes were performed at 37°±0.5° C. using the dialysis method under constant shaking (60 rpm). A 10 ml of phosphat buffered saline (PBS) pH 7.4 was used to test for the drug release for 48 h. Dialysis bags (Spectra/Por Biotech Cellulose Ester Dialysis Membrane MWCO: 300,000 Spectrum Ls Rancho Dominguez, Calif., USA) containing 500 μl liposomes were introduced into the system. All of the release media was withdrawn and replaced with the same volume of fresh medium at designated time points to maintain sink conditions. The sampled medium (1.0 ml out of 10 ml) was mixed with Bradford's reagent and the absorbance was measured as described in the method for determination of encapsulation efficiency. The concentration of the BSA released from the liposomes was calculated from the obtained linear calibration curve (r≧0.99) as previously described in the method for determination of encapsulation efficiency.

Row | Substance | penetration into bovine nasal tissue (CLSM) [1] | amount of CF incorporated into cells [2] | cumulative release of BSA [3] [%]
1 | carboxyfluorescein [free CF] | completely washed out | free CF<CF-loaded SPC liposomes <CF-loaded TPGS:DDA:SPC liposomes | –
2 | bovine serum albumin [free BSA] | – | – | 46.6±2.6
